Test results reported in patent publication US20240182531A1, “KV1.3 Blockers” (priority 2021, published 2024).
Where a SMILES comes first, the peptide text is derived from it. Bridges are numbered along the chain shown (N, C = ends). [ ]: non-standard residue; d: D form. Nle = CCCC[C@H](N)C(=O)O

What follows are compounds tested against Rat whole blood (Rattus norvegicus, UniProt P15384). Settings: IL-17A release, thapsigargin, 24 Hr, at least 2 replicates.
Rat whole blood, sequence (P15384 whole entry): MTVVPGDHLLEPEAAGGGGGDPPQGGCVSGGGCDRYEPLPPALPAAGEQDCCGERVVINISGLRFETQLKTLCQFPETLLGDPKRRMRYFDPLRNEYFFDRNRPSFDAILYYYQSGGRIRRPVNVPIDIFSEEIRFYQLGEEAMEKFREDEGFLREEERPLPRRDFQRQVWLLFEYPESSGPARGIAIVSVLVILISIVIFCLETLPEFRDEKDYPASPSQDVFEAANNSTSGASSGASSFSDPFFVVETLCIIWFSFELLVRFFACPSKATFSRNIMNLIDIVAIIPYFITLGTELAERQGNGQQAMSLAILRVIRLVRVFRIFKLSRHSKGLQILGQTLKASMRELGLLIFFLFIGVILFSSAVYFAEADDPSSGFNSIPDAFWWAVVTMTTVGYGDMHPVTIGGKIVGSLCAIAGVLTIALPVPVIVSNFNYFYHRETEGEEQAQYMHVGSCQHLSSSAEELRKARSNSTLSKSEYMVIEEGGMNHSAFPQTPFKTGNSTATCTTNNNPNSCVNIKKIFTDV
Assay type: cell-based
For `CC[C@H](C)[C@@H]1NC(=O)[C@H](C)NC(=O)[C@H](CCCCN)NC(=O)[C@H](CC(C)C)NC(=O)[C@@H]2CSSC[C@@H](C(=O)N[C@@H](Cc3ccc(O)cc3)C(=O)N3CCC[C@H]3C(=O)N[C@@H](CCCNC(=N)N)C(N)=O)NC(=O)[C@H](CCCCN)NC(=O)[C@@H]3CSSC[C@H](NC(=O)[C@H](CCC(=O)O)NC(=O)[C@H](C(C)C)NC(=O)[C@H](CO)NC(=O)[C@H](C)NC(=O)[C@H](CO)NC(=O)[C@@H](NC(=O)[C@H](CCCNC(=N)N)NC(=O)[C@H](CCSC)NC(=O)[C@H](CC(=O)O)NC(=O)[C@H](CCSC)NC(=O)[C@@H](N)CC(N)=O)CSSC[C@H](NC(=O)[C@H](CCCCN)NC(=O)CNC(=O)[C@H](Cc4ccccc4)NC(=O)[C@H]([C@@H](C)CC)NC(=O)[C@H](CO)NC(=O)CNC1=O)C(=O)N[C@@H](CCSC)C(=O)N[C@@H](CC(N)=O)C(=O)N[C@@H](CCCCN)C(=O)N[C@@H](CCCCN)C(=O)N3)C(=O)N[C@@H](CCCCN)C(=O)N[C@@H](CC(C)C)C(=O)N[C@@H](CCCCN)C(=O)N2` [compound 36] (H-NMDMRCSASVECKLKCLKAIGSIFGKCMNKKCKCYPR-NH2; disulfide 6-27, 12-32, 16-34), the IC50 was 750 pM.
`CCCC[C@@H]1NC(=O)[C@@H]2CSSC[C@H](NC(=O)[C@H](CCCNC(=N)N)NC(=O)[C@H](CCCC)NC(=O)[C@H](CC(=O)O)NC(=O)[C@H](CCCC)NC(=O)[C@@H](N)Cc3c[nH]cn3)C(=O)N[C@@H](CO)C(=O)N[C@@H](C)C(=O)N[C@@H](CO)C(=O)N[C@@H](C(C)C)C(=O)N[C@@H](CCC(=O)O)C(=O)N[C@H]3CSSC[C@H](NC(=O)[C@H](CCCCN)NC(=O)[C@H](CCCCN)NC(=O)[C@H](CC(N)=O)NC1=O)C(=O)N[C@@H](CCCCN)C(=O)N[C@H](C(=O)N[C@@H](Cc1ccc(O)cc1)C(=O)N1CCC[C@H]1C(=O)N[C@@H](CCCNC(=N)N)C(N)=O)CSSC[C@H](NC(=O)[C@H](CCCCN)NC(=O)[C@H](CCC(N)=O)NC(=O)[C@H](CCCCN)NC3=O)C(=O)N[C@@H](CC(C)C)C(=O)N[C@@H](CCCCN)C(=O)N[C@@H](C)C(=O)N[C@@H]([C@@H](C)CC)C(=O)NCC(=O)N[C@@H](CO)C(=O)N[C@@H]([C@@H](C)CC)C(=O)N[C@@H](Cc1ccccc1)C(=O)NCC(=O)N[C@@H](CCCCN)C(=O)N2` [compound 64] (H-H[Nle]D[Nle]RCSASVECKQKCLKAIGSIFGKC[Nle]NKKCKCYPR-NH2; disulfide 6-27, 12-32, 16-34) was tested, and the IC50 was 1200 pM.
`CCCC[C@@H]1NC(=O)[C@@H]2CSSC[C@H](NC(=O)[C@H](CCCNC(=N)N)NC(=O)[C@H](CCCC)NC(=O)[C@H](CC(=O)O)NC(=O)[C@H](CCCC)NC(=O)[C@@H](N)Cc3ccc(O)cc3)C(=O)N[C@@H](CO)C(=O)N[C@@H](C)C(=O)N[C@@H](CO)C(=O)N[C@@H](C(C)C)C(=O)N[C@@H](CCC(=O)O)C(=O)N[C@H]3CSSC[C@H](NC(=O)[C@H](CCCCN)NC(=O)[C@H](CCCCN)NC(=O)[C@H](CC(N)=O)NC1=O)C(=O)N[C@@H](CCCCN)C(=O)N[C@H](C(=O)N[C@@H](Cc1ccc(O)cc1)C(=O)N1CCC[C@H]1C(=O)N[C@@H](CCCNC(=N)N)C(N)=O)CSSC[C@H](NC(=O)[C@H](CCCCN)NC(=O)[C@H](CCC(N)=O)NC(=O)[C@H](CCCCN)NC3=O)C(=O)N[C@@H](CC(C)C)C(=O)N[C@@H](CCCCN)C(=O)N[C@@H](C)C(=O)N[C@@H]([C@@H](C)CC)C(=O)NCC(=O)N[C@@H](CO)C(=O)N[C@@H]([C@@H](C)CC)C(=O)N[C@@H](Cc1ccccc1)C(=O)NCC(=O)N[C@@H](CCCCN)C(=O)N2` [compound 65] (H-Y[Nle]D[Nle]RCSASVECKQKCLKAIGSIFGKC[Nle]NKKCKCYPR-NH2; disulfide 6-27, 12-32, 16-34) was tested, and the IC50 was 1100 pM.
`CCCC[C@@H]1NC(=O)[C@@H]2CSSC[C@H](NC(=O)[C@H](CCCNC(=N)N)NC(=O)[C@H](CCCC)NC(=O)[C@H](CC(=O)O)NC(=O)[C@H](CCCC)NC(=O)[C@@H](N)CO)C(=O)N[C@@H](CO)C(=O)N[C@@H](C)C(=O)N[C@@H](CO)C(=O)N[C@@H](C(C)C)C(=O)N[C@@H](CCC(=O)O)C(=O)N[C@H]3CSSC[C@H](NC(=O)[C@H](CCCCN)NC(=O)[C@H](CCCCN)NC(=O)[C@H](CC(N)=O)NC1=O)C(=O)N[C@@H](CCCCN)C(=O)N[C@H](C(=O)N[C@@H](Cc1ccc(O)cc1)C(=O)N1CCC[C@H]1C(=O)N[C@@H](CCCNC(=N)N)C(N)=O)CSSC[C@H](NC(=O)[C@H](CCCCN)NC(=O)[C@H](CCC(N)=O)NC(=O)[C@H](CCCCN)NC3=O)C(=O)N[C@@H](CC(C)C)C(=O)N[C@@H](CCCCN)C(=O)N[C@@H](C)C(=O)N[C@@H]([C@@H](C)CC)C(=O)NCC(=O)N[C@@H](CO)C(=O)N[C@@H]([C@@H](C)CC)C(=O)N[C@@H](Cc1ccccc1)C(=O)NCC(=O)N[C@@H](CCCCN)C(=O)N2` [compound 66] (H-S[Nle]D[Nle]RCSASVECKQKCLKAIGSIFGKC[Nle]NKKCKCYPR-NH2; disulfide 6-27, 12-32, 16-34) was tested, and the IC50 was 470 pM.
With `CCCC[C@@H]1NC(=O)[C@@H]2CSSC[C@H](NC(=O)[C@H](CCCNC(=N)N)NC(=O)[C@H](CCCC)NC(=O)[C@H](CC(=O)O)NC(=O)[C@H](CCCC)NC(=O)[C@@H](N)C(C)C)C(=O)N[C@@H](CO)C(=O)N[C@@H](C)C(=O)N[C@@H](CO)C(=O)N[C@@H](C(C)C)C(=O)N[C@@H](CCC(=O)O)C(=O)N[C@H]3CSSC[C@H](NC(=O)[C@H](CCCCN)NC(=O)[C@H](CCCCN)NC(=O)[C@H](CC(N)=O)NC1=O)C(=O)N[C@@H](CCCCN)C(=O)N[C@H](C(=O)N[C@@H](Cc1ccc(O)cc1)C(=O)N1CCC[C@H]1C(=O)N[C@@H](CCCNC(=N)N)C(N)=O)CSSC[C@H](NC(=O)[C@H](CCCCN)NC(=O)[C@H](CCC(N)=O)NC(=O)[C@H](CCCCN)NC3=O)C(=O)N[C@@H](CC(C)C)C(=O)N[C@@H](CCCCN)C(=O)N[C@@H](C)C(=O)N[C@@H]([C@@H](C)CC)C(=O)NCC(=O)N[C@@H](CO)C(=O)N[C@@H]([C@@H](C)CC)C(=O)N[C@@H](Cc1ccccc1)C(=O)NCC(=O)N[C@@H](CCCCN)C(=O)N2` [compound 67] (H-V[Nle]D[Nle]RCSASVECKQKCLKAIGSIFGKC[Nle]NKKCKCYPR-NH2; disulfide 6-27, 12-32, 16-34) the IC50 was 980 pM.
In the case of `CCCC[C@H](NC(=O)[C@@H]1CCCN1)C(=O)N[C@@H](CC(=O)O)C(=O)N[C@@H](CCCC)C(=O)N[C@@H](CCCNC(=N)N)C(=O)N[C@H]1CSSC[C@@H]2NC(=O)[C@H](CCCCN)NC(=O)CNC(=O)[C@H](Cc3ccccc3)NC(=O)[C@H]([C@@H](C)CC)NC(=O)[C@@H]3CSSC[C@@H](C(N)=O)NC(=O)[C@@H]4CCCN4C(=O)[C@H](Cc4ccc(O)cc4)NC(=O)[C@@H]4CSSC[C@H](NC(=O)[C@H](CCCCN)NC(=O)[C@H](CCC(N)=O)NC(=O)[C@H](CCCCN)NC(=O)[C@H](CSSC[C@H](NC(=O)[C@H](CCCCN)NC(=O)[C@H](CCCCN)NC(=O)[C@H](CC(N)=O)NC(=O)[C@H](CCCC)NC2=O)C(=O)N[C@@H](CCCCN)C(=O)N4)NC(=O)[C@H](CCC(=O)O)NC(=O)[C@H](C(C)C)NC(=O)[C@H](CO)NC(=O)[C@H](C)NC(=O)[C@H](CO)NC1=O)C(=O)N[C@@H](CC(C)C)C(=O)N[C@@H](CCCCN)C(=O)N[C@@H](C)C(=O)N[C@@H]([C@@H](C)CC)C(=O)NCC(=O)N3` [compound 81] (H-P[Nle]D[Nle]RCSASVECKQKCLKAIGCIFGKC[Nle]NKKCKCYPC-NH2; disulfide 6-27, 12-32, 16-34, 22-37), the IC50 is reported as 810 pM.
“Ac-LRCSASVECKQKCLAAIGSIFGKC[Nle]NKKCKCYPR-OH (cysteine pairing not given here) [compound 104]” was tested, and the IC50 was 900 pM.
In the case of “H-CSASVECKQKCLKAIGCIFGKC[Nle]NKKCKCYPC-NH2 (cysteine pairing not given here) [compound 84]”, the IC50 is reported as 1100 pM.
Compound “H-LRCSASVECKQKCLKAIGSIFGKC[Nle]NKKCKCYPR-OH (cysteine pairing not given here) [compound 103]” has an IC50 of 2100 pM.
In the case of “H-N[Nle]D[Nle]RCSASVECEQKCLKAIGSIFGKC[Nle]NKKCKCYPR-NH2 (cysteine pairing not given here) [compound 47]”, the IC50 is reported as 990 pM.
With “H-N[Nle]D[Nle]RCSASVECQQKCLKAIGSIFGKC[Nle]NKKCKCYPR-NH2 (cysteine pairing not given here) [compound 48]” the IC50 was 1100 pM.
“H-PIDERCSASVECKQKCLAAIGSIFGKC[Nle]NKKCKCYPR-OH (cysteine pairing not given here) [compound 94]” was tested, and the IC50 was 870 pM.
Work on “H-P[Nle]D[Nle]RCSASVECAQKCLAAIGSIFGKCMNKKCKCYPR-OH (cysteine pairing not given here) [compound 96]” yielded an IC50 of 320 pM.
Compound “H-P[Nle]D[Nle]RCSASVECKEKCL[homo-Gln]AIGSIFGKC[Nle]NKKCKCYPR-NH2 [compound 83]” has an IC50 of 1400 pM.
“H-P[Nle]D[Nle]RCSASVECKQKCLKAIGCIFGKC[Nle]NKKCKCYPC-OH (cysteine pairing not given here) [compound 86]” was tested, and the IC50 was 1100 pM.
In the case of “H-P[Nle]E[Nle]RCSASVECKQKCLLAIGSIFGKC[Nle]NKKCKCYPR-OH (cysteine pairing not given here) [compound 93]”, the IC50 is reported as 500 pM.
Work on “H-S[Nle]D[Nle]RCSASVECKEKCLQAIGSIFGKC[Nle]NKKCKCYPR-NH2 (cysteine pairing not given here) [compound 82]” yielded an IC50 of 690 pM.
In the case of “H-S[Nle]D[Nle]RCSASVECKQKCLAAIGCIFGKC[Nle]NKKCKCYPC-NH2 (cysteine pairing not given here) [compound 85]”, the IC50 is reported as 730 pM.
For “H-S[Nle]D[Nle]RCSASVECKQKCLKAIGSIFGKCMNKKCKCYQ-NH2 (cysteine pairing not given here) [compound 74]”, the IC50 was 1600 pM.
“H-S[Nle]D[Nle]RCSASVECKQKCLKAIGSIFGKCMNKKCKC[F(4-CH3)]PR-NH2 [compound 89]” was tested, and the IC50 was 540 pM.
“H-S[Nle]D[Nle]RCSASVECKQKCLKAIGSIFGKCMNKKCKC[F(4-F)]PR-NH2 [compound 87]” showed an IC50 of 340 pM.
In the case of “H-S[Nle]D[Nle]RCSASVECKQKCLKAIGSIFGKCMNKKCKC[F(4-NO2)]PR-NH2 [compound 88]”, the IC50 is reported as 1300 pM.
In the case of “H-S[Nle]D[Nle]RCSASVECKQKCLKAIGSIFGKC[Nle]NKKCKCYPR-OH (cysteine pairing not given here) [compound 80]”, the IC50 is reported as 520 pM.
For “H-S[Nle]D[Nle]RCSASVECKQKCLKAIGSIFG[homo-Lys]CMNKKCKCYPR-NH2 [compound 69]”, the IC50 was 2700 pM.
Work on “H-S[Nle]D[Nle]RCSASVECKQKCLVAIGSIFGKCMNKKCKCYPR-NH2 (cysteine pairing not given here) [compound 77]” yielded an IC50 of 390 pM.
